Results: patent US20230010108
Like-named read-outs stand apart in the source and are kept apart here.

Settings: ester bond, 2 steps

## COCCOCCOCCOCCOCCOCCOCCOCCOCCOCC(=O)NCCCC[C@@H]1NC(=O)[C@@H](NC(=O)CCCN2C(=O)C=CC2=O)[C@@H](NC(=O)CCCN2C(=O)C=CC2=O)C(=O)N[C@@H](CCCCNC(=O)COCCOCCOCCOCCOCCOCCOCCOCCOCCOC)C(=O)NCCCC(=O)Nc2cc(C[C@@H](C[C@H](C)C(=O)OC(C)(C)C)NC(=O)OC(C)(C)C)ccc2OC(=O)CCCNC1=O
From (7S,10R,11S,14S)-10,11-bis(4-(2,5-dioxo-2,5-dihydro-1H-pyrrol-1-yl)butanamido)-6,9,12,15-tetraoxo-7,14-bis(31-oxo-2,5,8,11,14,17,20,23,26,29-decaoxa-32-azahexatriacontan-36-yl)-5,8,13,16-tetraazaicosane-1,20-dioic acid + (2S,4R)-tert-butyl 5-(3-amino-4-hydroxyphenyl)-4-((tert-butoxycarbonyl)amino)-2-methylpentanoate?, 24-membered ring
  ring closure, isolated yield: 52%

## C[C@@H](C[C@H](Cc1ccc2c(c1)NC(=O)CCCNC(=O)[C@H](CCCCNC(=O)CCOCCOCCOCCC(=O)NCCOCCOCCC(=O)NCCOCCOCCC(=O)OC(C)(C)C)NC(=O)CCCNC(=O)[C@H](NC(=O)CCN1C(=O)C=CC1=O)[C@H](NC(=O)CCN1C(=O)C=CC1=O)C(=O)NCCCC(=O)O2)NC(=O)OC(C)(C)C)C(=O)OC(C)(C)C
From C[C@@H](C[C@H](Cc1ccc(O)c(NC(=O)CCCNC(=O)[C@H](CCCCNC(=O)CCOCCOCCOCCC(=O)NCCOCCOCCC(=O)NCCOCCOCCC(=O)OC(C)(C)C)NC(=O)CCCNC(=O)[C@@H](NC(=O)CCN2C(=O)C=CC2=O)[C@@H](NC(=O)CCN2C(=O)C=CC2=O)C(=O)NCCCC(=O)O)c1)NC(=O)OC(C)(C)C)C(=O)OC(C)(C)C, 26-membered ring
  ring closure, isolated yield: 39%

## COC(=O)[C@H](Cc1ccc2c(c1)NC(=O)CCCNC(=O)C(NC(=O)CCN1C(=O)C=CC1=O)C(NC(=O)CCN1C(=O)C=CC1=O)C(=O)NCCCC(=O)O2)NC(=O)OC(C)(C)C (stereo partly shown)
From 4,4′-((2,3-bis(2-(2,5-dioxo-2,5-dihydro-1H-pyrrol-1-yl)acetamido)-succinyl)bis(azanediyl))dibutanoic acid + (S)-methyl 3-(3-amino-4-hydroxyphenyl)-2-(tert-butoxycarbonylamino)propanoate?, 18-membered ring
  ring closure, isolated yield: 68%

## CC(C)[C@@H]1NC(=O)[C@H](C)NC(=O)CCCNC(=O)[C@H](NC(=O)CN2C(=O)C=CC2=O)[C@H](NC(=O)CN2C(=O)C=CC2=O)C(=O)NCCCC(=O)Oc2ccc(C[C@@H](C[C@H](C)C(=O)OC(C)(C)C)NC(=O)OC(C)(C)C)cc2NC1=O
From (2S,4R)-tert-butyl 5-(3-((S)-2-((S)-2-aminopropanamido)-3-methylbutanamido)-4-hydroxyphenyl)-4-((tert-butoxycarbonyl)amino)-2-methylpentanoate + 4,4′-(((2R,3S)-2,3-bis(2-(2,5-dioxo-2,5-dihydro-1H-pyrrol-1-yl)acetamido)succinyl)bis(azanediyl))-dibutanoic acid?, 24-membered ring
  ring closure, isolated yield: 62%
